Assay results published in ChEMBL document CHEMBL3991601, “The target landscape of clinical kinase drugs” (Science, 2017).
Activity calls are given as the source filed them. For most assays here, no stated cut-off is given here; in the data, actives have a measured Kd and inactives only a lower limit.

What follows are molecules tested against T1, Serine/threonine-protein kinase TAO1 (Homo sapiens, UniProt Q7L7X3).
T1 sequence (Q7L7X3 whole entry): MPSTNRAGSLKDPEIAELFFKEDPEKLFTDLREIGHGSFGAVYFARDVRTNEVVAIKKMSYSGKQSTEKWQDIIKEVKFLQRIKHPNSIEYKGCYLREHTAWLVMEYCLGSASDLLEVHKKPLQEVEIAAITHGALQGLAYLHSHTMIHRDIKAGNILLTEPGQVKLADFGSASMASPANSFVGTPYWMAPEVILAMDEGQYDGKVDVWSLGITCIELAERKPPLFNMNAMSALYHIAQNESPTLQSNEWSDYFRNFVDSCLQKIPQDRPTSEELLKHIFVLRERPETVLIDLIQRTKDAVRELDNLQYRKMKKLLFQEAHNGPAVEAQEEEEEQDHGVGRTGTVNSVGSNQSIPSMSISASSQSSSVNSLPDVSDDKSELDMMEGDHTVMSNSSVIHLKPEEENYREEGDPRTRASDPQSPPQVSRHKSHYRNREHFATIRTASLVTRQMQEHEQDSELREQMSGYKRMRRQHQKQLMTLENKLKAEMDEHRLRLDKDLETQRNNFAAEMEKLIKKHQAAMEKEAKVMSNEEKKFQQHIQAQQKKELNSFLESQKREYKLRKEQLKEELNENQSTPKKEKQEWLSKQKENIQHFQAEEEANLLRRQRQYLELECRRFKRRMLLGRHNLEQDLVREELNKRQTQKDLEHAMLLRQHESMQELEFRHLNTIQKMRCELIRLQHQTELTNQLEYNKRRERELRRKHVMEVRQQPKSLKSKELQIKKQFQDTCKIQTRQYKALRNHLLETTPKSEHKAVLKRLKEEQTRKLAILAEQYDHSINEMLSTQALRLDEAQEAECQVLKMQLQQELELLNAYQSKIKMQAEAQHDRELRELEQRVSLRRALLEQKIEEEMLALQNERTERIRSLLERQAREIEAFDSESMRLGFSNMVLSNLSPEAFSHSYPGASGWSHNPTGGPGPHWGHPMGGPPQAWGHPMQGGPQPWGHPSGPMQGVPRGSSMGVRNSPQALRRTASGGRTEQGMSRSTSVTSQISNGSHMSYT
`C[C@@H](c1ccc2nccn2c1)n1nnc2ncc(-c3cnn(C)c3)nc21` [SAVOLITINIB] was tested, and the Kd was > 30 µM (inactive). In the case of `CN1CCC(COc2cnc(-c3cccc(Cn4nc(-c5cccc(C#N)c5)ccc4=O)c3)nc2)CC1` [TEPOTINIB], the Kd is reported as > 30 µM (inactive).

The molecules below were run against Ribosomal protein S6 kinase alpha-4 (Homo sapiens, UniProt O75676).
Ribosomal protein S6 kinase alpha-4, sequence (O75676 whole entry): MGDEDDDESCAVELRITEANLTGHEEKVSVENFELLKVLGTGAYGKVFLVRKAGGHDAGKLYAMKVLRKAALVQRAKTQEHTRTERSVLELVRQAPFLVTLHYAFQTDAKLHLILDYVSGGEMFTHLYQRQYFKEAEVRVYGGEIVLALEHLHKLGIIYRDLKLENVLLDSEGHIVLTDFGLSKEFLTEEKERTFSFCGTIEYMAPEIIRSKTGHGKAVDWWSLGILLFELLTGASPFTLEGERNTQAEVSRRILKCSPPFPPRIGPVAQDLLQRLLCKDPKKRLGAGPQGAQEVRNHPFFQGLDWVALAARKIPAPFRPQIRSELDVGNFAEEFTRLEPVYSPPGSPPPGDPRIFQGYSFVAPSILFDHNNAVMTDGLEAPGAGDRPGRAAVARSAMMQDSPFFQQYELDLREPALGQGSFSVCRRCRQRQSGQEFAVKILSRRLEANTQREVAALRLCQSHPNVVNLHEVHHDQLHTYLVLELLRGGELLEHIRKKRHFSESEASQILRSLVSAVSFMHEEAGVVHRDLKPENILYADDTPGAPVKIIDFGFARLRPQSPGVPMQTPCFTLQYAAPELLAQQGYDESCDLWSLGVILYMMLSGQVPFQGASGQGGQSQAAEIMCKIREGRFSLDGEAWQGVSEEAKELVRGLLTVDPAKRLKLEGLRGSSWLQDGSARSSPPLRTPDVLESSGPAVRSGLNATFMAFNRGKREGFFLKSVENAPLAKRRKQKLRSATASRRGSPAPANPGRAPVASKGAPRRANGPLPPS
`CCc1cnn2c(NCc3ccc[n+]([O-])c3)cc(N3CCCC[C@H]3CCO)nc12` [DINACICLIB] was tested, and the Kd was > 30 µM (inactive). In the case of `Cc1cc(Nc2cc(N3CCN(C)CC3)nc(/C=C/c3ccccc3)n2)n[nH]1` [ENMD-2076], the Kd is reported as > 30 µM (inactive). With `C[C@@H](c1ccc2nccn2c1)n1nnc2ncc(-c3cnn(C)c3)nc21` [SAVOLITINIB] the Kd was > 30 µM (inactive). In the case of `CN1CCC(COc2cnc(-c3cccc(Cn4nc(-c5cccc(C#N)c5)ccc4=O)c3)nc2)CC1` [TEPOTINIB], the Kd is reported as > 30 µM (inactive).

Each molecule was assayed against T2, ATP-dependent 6-phosphofructokinase, platelet type (Homo sapiens, UniProt Q01813).
T2 sequence (Q01813 whole entry): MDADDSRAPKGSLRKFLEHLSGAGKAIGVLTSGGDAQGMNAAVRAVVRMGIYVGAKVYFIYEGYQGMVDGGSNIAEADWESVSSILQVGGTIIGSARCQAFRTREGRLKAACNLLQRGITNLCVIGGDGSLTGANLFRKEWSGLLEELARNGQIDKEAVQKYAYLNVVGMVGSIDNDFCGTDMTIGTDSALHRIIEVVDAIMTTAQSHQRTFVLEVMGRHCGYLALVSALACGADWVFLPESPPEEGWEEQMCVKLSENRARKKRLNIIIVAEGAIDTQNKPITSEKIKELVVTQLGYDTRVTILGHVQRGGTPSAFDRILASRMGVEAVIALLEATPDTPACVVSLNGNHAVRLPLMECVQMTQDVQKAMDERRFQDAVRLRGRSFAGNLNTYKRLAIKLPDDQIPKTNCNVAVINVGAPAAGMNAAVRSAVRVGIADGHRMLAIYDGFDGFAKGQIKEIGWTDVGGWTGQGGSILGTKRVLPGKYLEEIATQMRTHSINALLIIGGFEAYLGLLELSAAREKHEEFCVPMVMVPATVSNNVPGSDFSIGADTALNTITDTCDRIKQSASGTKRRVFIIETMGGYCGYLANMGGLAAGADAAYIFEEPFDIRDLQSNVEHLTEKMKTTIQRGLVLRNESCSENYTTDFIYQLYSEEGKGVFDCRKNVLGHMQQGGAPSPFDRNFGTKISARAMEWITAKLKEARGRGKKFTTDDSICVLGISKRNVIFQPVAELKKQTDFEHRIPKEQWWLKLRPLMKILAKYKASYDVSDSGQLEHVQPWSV
With `CCc1cnn2c(NCc3ccc[n+]([O-])c3)cc(N3CCCC[C@H]3CCO)nc12` [DINACICLIB] the Kd was > 30 µM (inactive). For `Cc1cc(Nc2cc(N3CCN(C)CC3)nc(/C=C/c3ccccc3)n2)n[nH]1` [ENMD-2076], the Kd was > 30 µM (inactive). For `C[C@@H](c1ccc2nccn2c1)n1nnc2ncc(-c3cnn(C)c3)nc21` [SAVOLITINIB], the Kd was > 30 µM (inactive). For `CN1CCC(COc2cnc(-c3cccc(Cn4nc(-c5cccc(C#N)c5)ccc4=O)c3)nc2)CC1` [TEPOTINIB], the Kd was > 30 µM (inactive).

What follows are molecules tested against Tyrosine-protein kinase Fer (Homo sapiens, UniProt P16591).
Tyrosine-protein kinase Fer, sequence (P16591 whole entry): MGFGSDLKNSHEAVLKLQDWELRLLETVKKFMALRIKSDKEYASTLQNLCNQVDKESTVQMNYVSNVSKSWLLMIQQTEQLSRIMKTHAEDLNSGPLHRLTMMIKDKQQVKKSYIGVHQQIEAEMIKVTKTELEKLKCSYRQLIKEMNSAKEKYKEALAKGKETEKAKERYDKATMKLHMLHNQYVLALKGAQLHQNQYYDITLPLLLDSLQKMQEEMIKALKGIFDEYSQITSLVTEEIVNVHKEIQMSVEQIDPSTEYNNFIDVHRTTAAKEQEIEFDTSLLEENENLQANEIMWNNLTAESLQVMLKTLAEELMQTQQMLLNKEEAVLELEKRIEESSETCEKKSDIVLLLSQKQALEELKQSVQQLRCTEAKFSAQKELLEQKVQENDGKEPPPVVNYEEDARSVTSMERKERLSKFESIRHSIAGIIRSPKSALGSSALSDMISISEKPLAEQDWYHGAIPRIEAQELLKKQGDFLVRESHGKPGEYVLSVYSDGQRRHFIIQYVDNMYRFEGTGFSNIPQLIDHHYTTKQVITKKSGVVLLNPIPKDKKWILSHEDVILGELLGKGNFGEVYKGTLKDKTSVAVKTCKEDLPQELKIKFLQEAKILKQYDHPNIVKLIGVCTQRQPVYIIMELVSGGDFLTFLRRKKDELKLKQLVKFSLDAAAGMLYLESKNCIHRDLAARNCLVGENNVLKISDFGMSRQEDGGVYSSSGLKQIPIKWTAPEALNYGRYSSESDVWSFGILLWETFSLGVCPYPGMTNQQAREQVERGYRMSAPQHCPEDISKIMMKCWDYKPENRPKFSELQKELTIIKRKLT
With `CCc1cnn2c(NCc3ccc[n+]([O-])c3)cc(N3CCCC[C@H]3CCO)nc12` [DINACICLIB] the Kd was > 30 µM (inactive). With `Cc1cc(Nc2cc(N3CCN(C)CC3)nc(/C=C/c3ccccc3)n2)n[nH]1` [ENMD-2076] the Kd was > 30 µM (inactive). With `C[C@@H](c1ccc2nccn2c1)n1nnc2ncc(-c3cnn(C)c3)nc21` [SAVOLITINIB] the Kd was > 30 µM (inactive). With `CN1CCC(COc2cnc(-c3cccc(Cn4nc(-c5cccc(C#N)c5)ccc4=O)c3)nc2)CC1` [TEPOTINIB] the Kd was > 30 µM (inactive).

What follows are molecules tested against Deoxycytidine kinase (Homo sapiens, UniProt P27707).
Deoxycytidine kinase, sequence (P27707 whole entry): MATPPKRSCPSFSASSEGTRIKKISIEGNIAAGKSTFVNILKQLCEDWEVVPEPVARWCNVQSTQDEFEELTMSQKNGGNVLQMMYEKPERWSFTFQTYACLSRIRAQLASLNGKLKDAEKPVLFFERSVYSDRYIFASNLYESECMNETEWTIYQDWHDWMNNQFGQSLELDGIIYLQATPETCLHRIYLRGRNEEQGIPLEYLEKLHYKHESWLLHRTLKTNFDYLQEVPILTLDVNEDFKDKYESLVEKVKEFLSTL
In the case of `CCc1cnn2c(NCc3ccc[n+]([O-])c3)cc(N3CCCC[C@H]3CCO)nc12` [DINACICLIB], the Kd is reported as > 30 µM (inactive). With `Cc1cc(Nc2cc(N3CCN(C)CC3)nc(/C=C/c3ccccc3)n2)n[nH]1` [ENMD-2076] the Kd was > 30 µM (inactive). With `C[C@@H](c1ccc2nccn2c1)n1nnc2ncc(-c3cnn(C)c3)nc21` [SAVOLITINIB] the Kd was > 30 µM (inactive). With `CN1CCC(COc2cnc(-c3cccc(Cn4nc(-c5cccc(C#N)c5)ccc4=O)c3)nc2)CC1` [TEPOTINIB] the Kd was > 30 µM (inactive).

Each molecule was assayed against Atypical kinase COQ8A, mitochondrial (Homo sapiens, UniProt Q8NI60).
Atypical kinase COQ8A, mitochondrial, sequence (Q8NI60 whole entry): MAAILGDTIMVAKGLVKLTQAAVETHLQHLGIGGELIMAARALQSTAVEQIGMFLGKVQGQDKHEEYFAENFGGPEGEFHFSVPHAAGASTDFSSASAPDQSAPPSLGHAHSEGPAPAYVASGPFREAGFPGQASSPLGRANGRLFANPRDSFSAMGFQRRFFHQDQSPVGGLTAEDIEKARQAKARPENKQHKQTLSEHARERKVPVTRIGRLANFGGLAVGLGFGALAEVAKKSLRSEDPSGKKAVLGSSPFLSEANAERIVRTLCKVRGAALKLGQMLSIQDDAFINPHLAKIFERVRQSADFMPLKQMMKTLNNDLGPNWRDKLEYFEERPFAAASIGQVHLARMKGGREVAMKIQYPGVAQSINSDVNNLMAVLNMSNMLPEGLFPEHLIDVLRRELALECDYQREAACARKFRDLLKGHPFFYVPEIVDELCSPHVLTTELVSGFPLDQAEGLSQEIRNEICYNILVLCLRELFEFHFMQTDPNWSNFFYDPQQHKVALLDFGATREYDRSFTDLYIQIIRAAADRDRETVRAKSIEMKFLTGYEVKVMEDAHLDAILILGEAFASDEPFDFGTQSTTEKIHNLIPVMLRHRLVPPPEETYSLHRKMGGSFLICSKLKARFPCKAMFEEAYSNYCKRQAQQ
With `CCc1cnn2c(NCc3ccc[n+]([O-])c3)cc(N3CCCC[C@H]3CCO)nc12` [DINACICLIB] the Kd was > 30 µM (inactive). `Cc1cc(Nc2cc(N3CCN(C)CC3)nc(/C=C/c3ccccc3)n2)n[nH]1` [ENMD-2076] was tested, and the Kd was > 30 µM (inactive). In the case of `C[C@@H](c1ccc2nccn2c1)n1nnc2ncc(-c3cnn(C)c3)nc21` [SAVOLITINIB], the Kd is reported as > 30 µM (inactive). `CN1CCC(COc2cnc(-c3cccc(Cn4nc(-c5cccc(C#N)c5)ccc4=O)c3)nc2)CC1` [TEPOTINIB] was tested, and the Kd was > 30 µM (inactive).

Each molecule was assayed against STE20-like serine/threonine-protein kinase (Homo sapiens, UniProt Q9H2G2).
In the case of `CCc1cnn2c(NCc3ccc[n+]([O-])c3)cc(N3CCCC[C@H]3CCO)nc12` [DINACICLIB], the Kd is reported as > 30 µM (inactive). For `Cc1cc(Nc2cc(N3CCN(C)CC3)nc(/C=C/c3ccccc3)n2)n[nH]1` [ENMD-2076], the Kd was > 30 µM (inactive). With `C[C@@H](c1ccc2nccn2c1)n1nnc2ncc(-c3cnn(C)c3)nc21` [SAVOLITINIB] the Kd was > 30 µM (inactive). For `CN1CCC(COc2cnc(-c3cccc(Cn4nc(-c5cccc(C#N)c5)ccc4=O)c3)nc2)CC1` [TEPOTINIB], the Kd was > 30 µM (inactive).

What follows are molecules tested against MAP kinase-activated protein kinase 2 (Homo sapiens, UniProt P49137).
MAP kinase-activated protein kinase 2, sequence (P49137 whole entry): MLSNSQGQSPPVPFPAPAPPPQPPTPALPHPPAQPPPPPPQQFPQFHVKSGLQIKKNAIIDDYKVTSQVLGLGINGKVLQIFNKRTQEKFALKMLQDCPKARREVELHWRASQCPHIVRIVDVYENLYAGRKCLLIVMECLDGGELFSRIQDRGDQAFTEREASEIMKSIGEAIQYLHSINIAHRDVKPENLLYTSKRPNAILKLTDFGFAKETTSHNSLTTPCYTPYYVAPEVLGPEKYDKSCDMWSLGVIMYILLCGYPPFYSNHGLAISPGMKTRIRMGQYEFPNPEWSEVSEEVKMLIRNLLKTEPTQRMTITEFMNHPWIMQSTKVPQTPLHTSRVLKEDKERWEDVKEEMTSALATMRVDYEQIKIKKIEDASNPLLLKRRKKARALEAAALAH
In the case of `CCc1cnn2c(NCc3ccc[n+]([O-])c3)cc(N3CCCC[C@H]3CCO)nc12` [DINACICLIB], the Kd is reported as > 30 µM (inactive). With `CN1CCC(COc2cnc(-c3cccc(Cn4nc(-c5cccc(C#N)c5)ccc4=O)c3)nc2)CC1` [TEPOTINIB] the Kd was > 30 µM (inactive).

What follows are molecules tested against T3, Mitogen-activated protein kinase kinase kinase 2 (Homo sapiens, UniProt Q9Y2U5).
T3 sequence (Q9Y2U5 whole entry): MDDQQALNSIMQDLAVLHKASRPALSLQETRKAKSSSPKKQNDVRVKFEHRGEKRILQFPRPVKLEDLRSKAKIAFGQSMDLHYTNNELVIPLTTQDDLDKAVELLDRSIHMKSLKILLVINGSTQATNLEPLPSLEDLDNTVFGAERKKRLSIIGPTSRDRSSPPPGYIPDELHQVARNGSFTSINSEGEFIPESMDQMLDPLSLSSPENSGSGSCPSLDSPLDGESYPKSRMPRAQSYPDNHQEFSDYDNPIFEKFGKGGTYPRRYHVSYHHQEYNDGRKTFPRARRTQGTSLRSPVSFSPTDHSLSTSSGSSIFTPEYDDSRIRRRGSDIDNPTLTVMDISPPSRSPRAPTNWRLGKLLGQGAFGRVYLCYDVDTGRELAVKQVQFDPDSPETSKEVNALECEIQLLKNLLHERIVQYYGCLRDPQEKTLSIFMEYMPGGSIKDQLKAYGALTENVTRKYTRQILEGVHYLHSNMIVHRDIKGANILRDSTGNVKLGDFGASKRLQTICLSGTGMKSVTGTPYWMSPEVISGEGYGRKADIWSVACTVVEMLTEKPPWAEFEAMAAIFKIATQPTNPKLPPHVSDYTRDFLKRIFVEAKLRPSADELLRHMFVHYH
In the case of `CCc1cnn2c(NCc3ccc[n+]([O-])c3)cc(N3CCCC[C@H]3CCO)nc12` [DINACICLIB], the Kd is reported as > 30 µM (inactive). With `C[C@@H](c1ccc2nccn2c1)n1nnc2ncc(-c3cnn(C)c3)nc21` [SAVOLITINIB] the Kd was > 30 µM (inactive). With `CN1CCC(COc2cnc(-c3cccc(Cn4nc(-c5cccc(C#N)c5)ccc4=O)c3)nc2)CC1` [TEPOTINIB] the Kd was > 30 µM (inactive).

Each molecule was assayed against Tyrosine-protein kinase Lyn (Homo sapiens, UniProt P07948).
Tyrosine-protein kinase Lyn, sequence (P07948 whole entry): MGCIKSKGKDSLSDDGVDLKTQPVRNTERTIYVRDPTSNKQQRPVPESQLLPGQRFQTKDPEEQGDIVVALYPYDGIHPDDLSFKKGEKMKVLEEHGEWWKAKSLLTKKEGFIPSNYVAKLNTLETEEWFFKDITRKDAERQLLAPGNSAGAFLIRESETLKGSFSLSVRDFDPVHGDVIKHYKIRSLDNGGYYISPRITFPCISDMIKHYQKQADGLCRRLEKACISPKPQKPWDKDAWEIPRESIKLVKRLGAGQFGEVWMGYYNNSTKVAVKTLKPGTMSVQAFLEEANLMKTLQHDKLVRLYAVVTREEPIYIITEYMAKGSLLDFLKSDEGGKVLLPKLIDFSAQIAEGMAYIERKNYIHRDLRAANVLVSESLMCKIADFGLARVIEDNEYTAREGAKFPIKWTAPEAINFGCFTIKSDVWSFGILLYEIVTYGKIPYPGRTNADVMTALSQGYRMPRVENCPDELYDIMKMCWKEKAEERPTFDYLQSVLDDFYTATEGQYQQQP
For `CCc1cnn2c(NCc3ccc[n+]([O-])c3)cc(N3CCCC[C@H]3CCO)nc12` [DINACICLIB], the Kd was > 30 µM (inactive). With `Cc1cc(Nc2cc(N3CCN(C)CC3)nc(/C=C/c3ccccc3)n2)n[nH]1` [ENMD-2076] the Kd was > 30 µM (inactive). With `C[C@@H](c1ccc2nccn2c1)n1nnc2ncc(-c3cnn(C)c3)nc21` [SAVOLITINIB] the Kd was > 30 µM (inactive). With `CN1CCC(COc2cnc(-c3cccc(Cn4nc(-c5cccc(C#N)c5)ccc4=O)c3)nc2)CC1` [TEPOTINIB] the Kd was > 30 µM (inactive).

What follows are molecules tested against ATP-dependent RNA helicase DDX3X (Homo sapiens, UniProt O00571).
In the case of `CCc1cnn2c(NCc3ccc[n+]([O-])c3)cc(N3CCCC[C@H]3CCO)nc12` [DINACICLIB], the Kd is reported as > 30 µM (inactive). `Cc1cc(Nc2cc(N3CCN(C)CC3)nc(/C=C/c3ccccc3)n2)n[nH]1` [ENMD-2076] was tested, and the Kd was > 30 µM (inactive). For `C[C@@H](c1ccc2nccn2c1)n1nnc2ncc(-c3cnn(C)c3)nc21` [SAVOLITINIB], the Kd was > 30 µM (inactive). For `CN1CCC(COc2cnc(-c3cccc(Cn4nc(-c5cccc(C#N)c5)ccc4=O)c3)nc2)CC1` [TEPOTINIB], the Kd was > 30 µM (inactive).

Each molecule was assayed against Mitogen-activated protein kinase kinase kinase 1 (Homo sapiens, UniProt Q13233).
Mitogen-activated protein kinase kinase kinase 1, sequence (Q13233 whole entry): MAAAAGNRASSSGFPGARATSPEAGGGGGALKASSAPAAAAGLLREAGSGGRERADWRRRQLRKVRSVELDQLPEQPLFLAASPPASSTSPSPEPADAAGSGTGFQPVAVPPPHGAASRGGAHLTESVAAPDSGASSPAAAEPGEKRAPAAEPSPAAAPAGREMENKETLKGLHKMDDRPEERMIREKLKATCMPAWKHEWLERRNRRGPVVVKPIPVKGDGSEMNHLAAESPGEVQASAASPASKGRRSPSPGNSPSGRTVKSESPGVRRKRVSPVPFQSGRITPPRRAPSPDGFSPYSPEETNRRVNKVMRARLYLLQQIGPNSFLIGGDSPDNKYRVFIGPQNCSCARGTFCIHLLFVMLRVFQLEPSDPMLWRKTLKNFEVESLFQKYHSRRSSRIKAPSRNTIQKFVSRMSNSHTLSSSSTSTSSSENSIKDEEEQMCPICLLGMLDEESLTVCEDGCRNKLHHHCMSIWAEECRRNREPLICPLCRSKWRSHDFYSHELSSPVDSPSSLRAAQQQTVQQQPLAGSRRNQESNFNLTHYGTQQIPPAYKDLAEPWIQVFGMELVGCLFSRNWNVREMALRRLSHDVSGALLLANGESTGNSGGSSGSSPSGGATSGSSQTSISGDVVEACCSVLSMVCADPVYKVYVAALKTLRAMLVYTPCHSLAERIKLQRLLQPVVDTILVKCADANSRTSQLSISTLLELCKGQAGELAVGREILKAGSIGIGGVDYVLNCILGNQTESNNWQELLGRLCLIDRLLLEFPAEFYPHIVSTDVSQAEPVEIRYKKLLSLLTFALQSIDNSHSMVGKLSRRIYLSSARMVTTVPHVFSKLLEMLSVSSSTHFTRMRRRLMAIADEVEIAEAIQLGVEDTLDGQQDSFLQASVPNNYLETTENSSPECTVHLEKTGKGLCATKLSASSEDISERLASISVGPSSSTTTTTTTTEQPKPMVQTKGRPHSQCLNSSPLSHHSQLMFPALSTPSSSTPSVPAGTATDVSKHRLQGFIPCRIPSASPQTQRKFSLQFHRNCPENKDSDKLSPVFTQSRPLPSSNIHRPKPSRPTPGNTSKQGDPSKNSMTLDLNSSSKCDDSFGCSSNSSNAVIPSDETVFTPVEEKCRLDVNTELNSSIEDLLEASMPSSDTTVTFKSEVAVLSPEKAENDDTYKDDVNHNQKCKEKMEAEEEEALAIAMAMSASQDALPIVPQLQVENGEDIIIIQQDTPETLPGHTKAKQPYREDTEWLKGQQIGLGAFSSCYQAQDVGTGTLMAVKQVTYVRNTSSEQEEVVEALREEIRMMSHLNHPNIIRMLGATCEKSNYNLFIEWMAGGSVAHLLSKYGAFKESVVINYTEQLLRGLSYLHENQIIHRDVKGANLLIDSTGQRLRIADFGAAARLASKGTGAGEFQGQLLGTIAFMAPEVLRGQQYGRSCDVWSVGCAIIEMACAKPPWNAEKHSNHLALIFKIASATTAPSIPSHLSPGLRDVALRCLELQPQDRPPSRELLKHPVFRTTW
With `CCc1cnn2c(NCc3ccc[n+]([O-])c3)cc(N3CCCC[C@H]3CCO)nc12` [DINACICLIB] the Kd was > 30 µM (inactive). With `Cc1cc(Nc2cc(N3CCN(C)CC3)nc(/C=C/c3ccccc3)n2)n[nH]1` [ENMD-2076] the Kd was > 30 µM (inactive). For `C[C@@H](c1ccc2nccn2c1)n1nnc2ncc(-c3cnn(C)c3)nc21` [SAVOLITINIB], the Kd was > 30 µM (inactive). With `CN1CCC(COc2cnc(-c3cccc(Cn4nc(-c5cccc(C#N)c5)ccc4=O)c3)nc2)CC1` [TEPOTINIB] the Kd was > 30 µM (inactive).

The molecules below were run against Non-receptor tyrosine-protein kinase TYK2 (Homo sapiens, UniProt P29597).
With `CCc1cnn2c(NCc3ccc[n+]([O-])c3)cc(N3CCCC[C@H]3CCO)nc12` [DINACICLIB] the Kd was > 30 µM (inactive). `C[C@@H](c1ccc2nccn2c1)n1nnc2ncc(-c3cnn(C)c3)nc21` [SAVOLITINIB] was tested, and the Kd was > 30 µM (inactive).
